Data on one compound can be found in patent US10301298B2, “Methods, compounds, and compositions for the treatment of angiotensin-related diseases” (University of Southern California, priority 2013, dated 2019).

One series has as its target T1, AT1R (Homo sapiens, UniProt P30556).
T1 sequence (P30556 1-359): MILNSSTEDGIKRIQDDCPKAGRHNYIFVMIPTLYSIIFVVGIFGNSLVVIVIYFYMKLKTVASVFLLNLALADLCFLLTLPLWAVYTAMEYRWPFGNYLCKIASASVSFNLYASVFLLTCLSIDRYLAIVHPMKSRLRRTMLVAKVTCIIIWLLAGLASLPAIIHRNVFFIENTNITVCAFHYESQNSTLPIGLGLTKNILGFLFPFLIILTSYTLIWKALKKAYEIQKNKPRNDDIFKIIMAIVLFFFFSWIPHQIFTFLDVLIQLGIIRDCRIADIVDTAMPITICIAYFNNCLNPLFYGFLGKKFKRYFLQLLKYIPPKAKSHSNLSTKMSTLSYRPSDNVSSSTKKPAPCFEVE
Kind of series: AT1R displacement assay with radiolabeled Ang II. The class given is binding. Particulars: displacement of radiolabeled Ang II or analogs; read-out: EC50 displacing Ang II at the AT1 receptor. How it is done:
Compound 7 was evaluated in vitro for its ability to compete with ratholabeled Ang II or analogs in a displacement assay for AT1R and AT2R receptors.

In the next series the target is T2, Mas (Homo sapiens, UniProt P04201).
T2 construct: expressed in transfected cells
T2 sequence (P04201 1-325): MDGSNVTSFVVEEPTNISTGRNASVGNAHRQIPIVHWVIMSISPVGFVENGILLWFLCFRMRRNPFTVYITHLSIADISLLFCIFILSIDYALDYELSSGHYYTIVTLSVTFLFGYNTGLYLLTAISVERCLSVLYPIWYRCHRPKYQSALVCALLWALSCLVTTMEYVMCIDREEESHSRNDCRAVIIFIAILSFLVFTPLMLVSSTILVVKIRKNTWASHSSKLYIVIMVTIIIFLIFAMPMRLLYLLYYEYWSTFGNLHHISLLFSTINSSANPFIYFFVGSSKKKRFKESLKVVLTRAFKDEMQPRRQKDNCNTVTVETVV
The series is described as follows: NO production in CHO cells stably transfected with Human Mas1. The class given is cell-based. The conditions noted are these: for NO production with co-administration of A779: with A779, selective Mas antagonist, 1×10^−7 M. As to the method: Transfected cells that express Mas were used to identify and evaluate provided compounds as Mas agonists, by promoting NO production as readouts. CHO cells stably transfected with pTEJ-8 vector containing recombinant Human Mas1 clone were grown to confluency. Cells were washed three times for 30/5/5 minutes with prewarmed (37° C.) Tyrodes Salts (supplemented with 1 g/L NaHCO3, and 1.9 g/L d-Glucose). Cells were incubated for a short time in 700 μL of supplemented Tyrodes salts containing 10 μM PTIO, 100 μM DAN, and 1 mM L-arginine. When using antagonist for competition assays, cells were exposed to the inhibitor at 1×10^−7 M for 15 minutes, before additional drugs are added.
Chemicals (10^−8 to 10^−6 M or the maximum concentration found not to cause cytotoxicity) to be screened were added to the cell medium and the plates were agitated for 1 minute before being placed into the incubator for 2 hours. After 2 hours, cellular supernatants were transferred to opaque 96 well plates, and the fluorescence intensity was recorded at an ex/em of 380/425.

Another series deals with db/db mice. Kind of series: Bone marrow cell counts and progenitor colonies in db/db mice. The format is in vivo. The conditions noted are these: 500 mcg/kg/day subcutaneously, 14 days. As to the method:
The femurs and tibia were collected from db/db mice treated 500 mcg/kg/day Ang(1-7) or Compound 7 subcutaneously for 14 days were euphanized and the bone marrow were collected by flushing with PBS containing 2% fetal calf serum. After collection of the bone marrow, the red blood cells will be lysed with a hypotonic solution (described above), mixed with 0.04% trypan blue and the number of nucleated cells was assessed by hematocytometer under light microscopy. Aliquots of cells were then resuspended at 1×10^6 cells/ml (GM and GEMM, bone marrow), 1.5×10^6 cells/ml (BFU-E, bone marrow). One hundred μ1 of each suspension was added to 900 μl of semisolid medium containing 0.9% methyl cellulose in Iscove's MDM, 15% fetal calf serum, 1% bovine serum albumin, 10 μg/ml bovine pancreatic insulin, 200 μg/ml human transferrin, 10^−4 M 2-mercaptoethanol, 2 mM glutamine, 10 ng/ml recombinant murine interleukin 3, 10 ng/ml recombinant human interleukin 6, 50 ng/ml recombinant murine stem cell factor and 3 units/ml erthropoietin. This mixture was then added to duplicate wells of a 24 well plate. The cultures were then placed at 37° C. in a humidified atmosphere of 5% CO2 in air. At day 14, the number of progenitor colonies formed was enumerated under phase contrast microscopy.
The bone marrow cells were also cultured to assess the number of MSCs by a CFU—F assay. 2.5×10^5 cells/ml, 2 ml per well, were diluted into Mesencult medium (Stem Cell Technologies, Vancouver, BC, Canada) and 2 mL were placed in each well of a 24 well plate. The cultures were then incubated at 37° C. in a humidified atmosphere of 5% CO2 in air. At days 2, 5 and 8, the number of progenitor colonies formed was enumerated under phase contrast microscopy.

Another series concerns MDA MB 231. The series is described as follows: MTT cellular viability of MDA MB 231 breast cancer cell line. The format is cell-based. Particulars: for IC50: Homo sapiens, MDA-MB-231, MTT. How it is done: Compound 7 was evaluated for its ability to modulate cancer proliferation using MDA MB 231 breast cancer cell line. MDA MB 231 was treated with increasing concentration of Compound 7 ranged from 1×10^−12 to 1×10^−3 M, where the cells were incubated for 48 hours. After the incubation, cellular viability was evaluated using 3-(4,5-dimethylthiazol-2-yl)-2,5-diphenyltetrazolium bromide or MTT, where viable cells are able to reduce MTT to formazan and form an insoluble crystal. The solubilized crystal can be spectrometrically determine, where cellular viability is compared to cells treated with vehicle. The cellular viability of MDA MB 231 is summarized (FIG. 9). […] Rather at 1×10^−12 M ([…]) of Compound 7, the cellular proliferation was only 70% of vehicle treated.

The nature of series [1]: Oral bioavailability in C57Bl/6 mice. The format is in vivo. Particulars: 500 μg/kg, oral gavage vs intravenous. How it is done:
Compound 7 was evaluated for oral bioavailability at 500 μg/kg in C57Bl/6 mice. The drug was given by intravenous injection or by oral gavage and blood was collected at 0.5, 1, 2, 4, 8, 24 hours into heparinized tubes. The level of drug in the blood was measured by liquid chromatograph-mass spectrometry. Bioavailability was determined using the following ratio AUCIG/AUCIV (FIG. 10).

Another series has as its system C57Bl/6 mice. Kind of series: Acute toxicity in C57Bl/6 mice. The class given is in vivo. The conditions noted are these: 500 μg/kg subcutaneous or intravenous, 7 days after treatment. As to the method:
Compound 7 was evaluated for acute toxicity at 500 μg/kg in C57Bl/6 mice that was given as either a subcutaneous or intravenous injection, and its safety was evaluated for 7 days after treatment.

Read-outs that look alike come from different tables or passages of the source. Where only a bound is given, the exact number is not on record here.

Turning to `CCCCOC(=O)NS(=O)(=O)c1ccc(OC(F)(F)F)cc1-c1ccc(Cn2ccnc2)cn1` [Compound 7, butyl (2-(5-((1H-imidazol-1-yl)methyl)pyridin-2-yl)-4-(trifluoromethoxy)phenyl)sulfonylcarbamate], the EC50 (in general, the concentration needed to bring the measured effect to its halfway point) at AT1R was greater than 10000 nM; at Mas (Mas-transfected CHO cells, 2 hours), 10 nM. Further, the “ability to enhance NO production (fluorescence)” value on Mas (Mas-transfected CHO cells) is “concentration dependent increase in NO”. The “NO production with co-administration of A779” value is reported as “back to baseline” at Mas and “back to baseline fluorescence” at Mas (listed as compound 7). Moreover, the bone marrow counts result with db/db mice was “increase bone marrow counts”; in the series on db/db mice (listed as compound 7) it was “increased the bone marrow counts”. The “increase in bone marrow cell number, CFU-GEMM, CFU-GM, BFU-E and MSC” value with db/db mice is “comparable to Ang(1-7)”. The IC50 in the series on MDA MB 231 (48 hours, read-out: IC50 (MDA MB 231 proliferation)) came to 58 nM; in the series with MDA MB 231 (48 hours, read-out: IC50 (MDA MB 231 viability, Hill-slope analysis)) it was 58.2 nM. The “effect on breast cancer cell proliferation” value in the series with MDA MB 231 (MDA MB 231, 1×10^−12 to 1×10^−3 M) is listed as “did not increase breast cancer cell proliferation”. Also, in the series on MDA MB 231 (MDA MB 231, at 1×10^−12 M, 48 hours), the “cellular proliferation, % of vehicle treated” value was found to be 70%. In series [1], the “oral bioavailability (AUCIG/AUCIV)” value was found to be 30%. For the same compound, the acute toxicity result in the series on C57Bl/6 mice is listed as “No overt signs of toxicity”.
